The nature of one data set: Solubility observations. Format: physicochemical.
A short description of data set [1]: Stability to isolation from radio-HPLC effluent, evaporation and dissolution in PBS (radio-HPLC reinjection). As to conditions: evaporation of solvents, dissolution in PBS. Type of data set: physicochemical. Here is the method: Similarly, radiohalogenation of para-tri-n-butylstannylbenzamidyl-dPEG4-carboxylic acid methyl ester 9 (Figure 3) using ChT as oxidant provided quantitative yields of [^125I]10 and [^211At]12 by radio-HPLC analyses (Figure 4A,B). The radiohalogenation reaction products were used without purification in the oxidation reactions to make the corresponding iodoxyaryl or astatoxyaryl compounds. Oxidation of [^125I]5 (Figure 2) provided [^125I]6 in 71% RCY. Oxidation of [^125I]10 (Figure 3) at 70 °C for 20 min provided a complex mixture of products, but isolation of the major peak (~6–8 min) provided [^125I]11 in 60% RCY (Figure 4C,E). […]
Two biodistribution studies were conducted. One biodistribution study evaluated the tissue distribution in athymic mice of isolated products from the reactions to produce [^125I]11 and [^211At]13. […]
HPLC analyses of non-radioactive compounds were performed using a system composed of a Hewlett-Packard quaternary 1050 gradient pump, a variable wavelength UW detector (254 nm) and an evaporative light scattering detector (ELSD 2000, Alltech, Deerfield, IL, USA). Radio-HPLC analysis of product mixtures from radiohalogenation reactions were analyzed using a system composed of two Beckman model 110 B pumps, a Beckman 420 controller, a Beckman model 153 UV detector (254 nm), and a Beckman model 170 radiation detector. […]

Data set [2] can be described thus: Biodistribution of coinjected [125I]11 and [211At]13 in athymic mice. Type of data set: in vivo. As to conditions: tail vein coinjection, 3 µCi each, n = 5, mean ± SD; for Concentration of radioactivity in neck: neck (thyroid).

On to `COC(=O)c1ccc(I(=O)=O)cc1` [Compound 6, Para-Iodoxybenzoic Acid Methyl Ester], for which the melting point (usually the temperature, or range, at which the solid turns liquid) fell in the range of 243 to 245 °C. In addition, the “Solubility in DMSO” value in “Solubility observations” (DMSO at room temperature) was “only partially soluble”. Moreover, the Solubility entry in the data set “Solubility observations” (all solvents tried) is “very insoluble in all solvents tried”.

Regarding `COC(=O)CCOCCOCCOCCOCCNC(=O)c1ccc([125I](=O)=O)cc1` [[125I]11], in data set [1], the “Stability under the conditions of isolation by radio-HPLC” value is on record as “did not change during that process”. Also, in data set [2] (1 h p.i.), the “Concentration of radioactivity in blood” value is listed as 0.22 ± 0.14 %ID/g, the “Concentration of radioactivity in intestine” value (“Concentration … in intestine” for short) turned out to be 9.59 ± 8.73 %ID/g, the “Concentration of radioactivity in kidney” value was 0.84 ± 0.23 %ID/g and the “Concentration of radioactivity in liver” value is recorded as 1.73 ± 0.96 %ID/g. In addition, in data set [2] (1 h p.i.), the “Concentration of radioactivity in lung” value is 0.32 ± 0.10 %ID/g, the “Concentration of radioactivity in muscle” value is 0.12 ± 0.05 %ID/g, the “Concentration of radioactivity in spleen” value is 0.35 ± 0.28 %ID/g and the “Concentration of radioactivity in stomach” value (shortened to “Concentration … in stomach”) is listed as 3.53 ± 1.09 %ID/g. In addition, the “Concentration of radioactivity in neck” value in data set [2] (1 h p.i.) worked out at 0.49 ± 0.09 %ID/g. In addition, in data set [2] (4 h p.i.), the “Concentration of radioactivity in blood” value is listed as 0.23 ± 0.18 %ID/g, the “Concentration … in intestine” value amounted to 3.39 ± 1.15 %ID/g, the “Concentration of radioactivity in kidney” value is recorded as 0.40 ± 0.15 %ID/g and the “Concentration of radioactivity in liver” value came out at 0.64 ± 0.47 %ID/g. Also, in data set [2] (4 h p.i.), the “Concentration of radioactivity in lung” value stood at 0.14 ± 0.07 %ID/g, the “Concentration of radioactivity in muscle” value turned out to be 0.03 ± 0.01 %ID/g, the “Concentration of radioactivity in spleen” value is recorded as 0.08 ± 0.04 %ID/g and the “Concentration … in stomach” value was determined as 0.65 ± 0.16 %ID/g. Also, the “Concentration of radioactivity in neck” value in data set [2] (4 h p.i.) is recorded as 0.35 ± 0.14 %ID/g. Also, in data set [2] (24 h p.i.), the “Concentration of radioactivity in blood” value is given as 0.01 ± 0.00 %ID/g, the “Concentration … in intestine” value is on record as 0.02 ± 0.01 %ID/g, the “Concentration of radioactivity in kidney” value came out at 0.03 ± 0.01 %ID/g and the “Concentration of radioactivity in liver” value came to 0.01 ± 0.00 %ID/g. Moreover, in data set [2] (24 h p.i.), the “Concentration of radioactivity in lung” value was 0.54 ± 0.85 %ID/g, the “Concentration of radioactivity in spleen” value amounted to 0.01 ± 0.00 %ID/g, the “Concentration … in stomach” value turned out to be 0.02 ± 0.01 %ID/g and the “Concentration of radioactivity in neck” value is on record as 0.02 ± 0.01 %ID/g.

As for `COC(=O)CCOCCOCCOCCOCCNC(=O)c1ccc([211At](=O)=O)cc1` [[211At]13, p-[^211At]astatoxylbenzoyl-dPEG-methyl ester], the “Stability under the conditions of isolation by radio-HPLC” value in data set [1] was “too unstable”.

These data come from publication PMC9506049, “Oxidation of p-[^125I]Iodobenzoic Acid and p-[^211At]Astatobenzoic Acid Derivatives and Evaluation In Vivo” (International Journal of Molecular Sciences, 2022).
